According to PubChem BioAssay (NCI):
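GI50: concentration for 50% inhibition of growth. The concentration for full growth arrest is given as TGI.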

Tests used:
Assay in all cases: growth of human tumour cells (NCI), 384-well format
MCF7 breast = test system: MCF7 breast
NCI-H522 lung = test system: NCI-H522 lung
SNB-75 CNS = test system: SNB-75 CNS
RXF 393 renal = test system: RXF 393 renal
SNB-19 CNS = test system: SNB-19 CNS
ACHN renal = test system: ACHN renal
HCT-116 colon = test system: HCT-116 colon
NCI-H322M lung = test system: NCI-H322M lung
SN12C renal = test system: SN12C renal
MDA-MB-468 breast = test system: MDA-MB-468 breast
NCI-H460 NSCLC = test system: NCI-H460 NSCLC
SF-295 CNS = test system: SF-295 CNS
NCI-H226 lung = test system: NCI-H226 lung
MDA-MB-435 melanoma = test system: MDA-MB-435 melanoma
NCI/ADR-RES ovarian = test system: NCI/ADR-RES ovarian
OVCAR-4 ovarian = test system: OVCAR-4 ovarian
HL-60(TB) leukemia = test system: HL-60(TB) leukemia
HT29 colon = test system: HT29 colon
RPMI-8226 leukemia = test system: RPMI-8226 leukemia
IGROV1 ovarian = test system: IGROV1 ovarian
MDA-MB-231 breast = test system: MDA-MB-231 breast
PC-3 prostate = test system: PC-3 prostate
EKVX NSCLC = test system: EKVX NSCLC
MOLT-4 leukemia = test system: MOLT-4 leukemia
HOP-92 NSCLC = test system: HOP-92 NSCLC
OVCAR-5 ovarian = test system: OVCAR-5 ovarian
CCRF-CEM leukemia = test system: CCRF-CEM leukemia
BT-549 breast = test system: BT-549 breast
SF-268 CNS = test system: SF-268 CNS
OVCAR-8 ovarian = test system: OVCAR-8 ovarian
HS 578T breast = test system: HS 578T breast
T-47D breast = test system: T-47D breast
SF-539 CNS = test system: SF-539 CNS
A549 NSCLC = test system: A549 NSCLC
UO-31 renal = test system: UO-31 renal
SR leukemia = test system: SR leukemia
OVCAR-3 ovarian = test system: OVCAR-3 ovarian
HOP-62 NSCLC = test system: HOP-62 NSCLC
HCC-2998 colon = test system: HCC-2998 colon
SW-620 colon = test system: SW-620 colon
SK-OV-3 ovarian = test system: SK-OV-3 ovarian
NCI-H23 lung = test system: NCI-H23 lung
KM12 colon = test system: KM12 colon
CAKI-1 renal = test system: CAKI-1 renal
A498 renal = test system: A498 renal
SK-MEL-28 melanoma = test system: SK-MEL-28 melanoma
TK-10 renal = test system: TK-10 renal

For `Cc1ccc(Nc2nc(N)c(C(=O)c3ccc(C#N)cc3)s2)cc1`, the GI50 (MCF7 breast) was 40.2 nM, the TGI (MCF7 breast) was 28200 nM and the GI50 (NCI-H522 lung) was 121 nM. For the same compound, the TGI (NCI-H522 lung) was 292 nM, the GI50 (SNB-75 CNS) was 37 nM and the TGI (SNB-75 CNS) was 520 nM. It also gave a GI50 (RXF 393 renal) of 23.3 nM, a TGI (RXF 393 renal) of 51.2 nM and a GI50 (SNB-19 CNS) of 325 nM. It also gave a TGI (SNB-19 CNS) greater than 100000 nM, a GI50 (ACHN renal) of 72.5 nM and a TGI (ACHN renal) of 17800 nM. It also gave a GI50 (HCT-116 colon) of 243 nM, a TGI (HCT-116 colon) of 976 nM and a GI50 (NCI-H322M lung) of 481 nM. It also gave a TGI (NCI-H322M lung) of 46400 nM, a GI50 (SN12C renal) of 348 nM and a TGI (SN12C renal) of 54600 nM. The GI50 (MDA-MB-468 breast) was 185 nM, the TGI (MDA-MB-468 breast) was 352 nM and the GI50 (NCI-H460 NSCLC) was 178 nM. The TGI (NCI-H460 NSCLC) was 351 nM, the GI50 (SF-295 CNS) was 57.8 nM and the TGI (SF-295 CNS) was 298 nM. The GI50 (NCI-H226 lung) was 39.3 nM, the TGI (NCI-H226 lung) was 2070 nM and the GI50 (MDA-MB-435 melanoma) was 41.9 nM. It also gave a TGI (MDA-MB-435 melanoma) of 151 nM, a GI50 (NCI/ADR-RES ovarian) of 28.7 nM and a TGI (NCI/ADR-RES ovarian) of 69.1 nM. It also gave a GI50 (OVCAR-4 ovarian) of 385 nM, a TGI (OVCAR-4 ovarian) of 17800 nM and a GI50 (HL-60(TB) leukemia) of 19.7 nM. The TGI (HL-60(TB) leukemia) was 34.7 nM, the GI50 (HT29 colon) was 34 nM and the TGI (HT29 colon) was 28200 nM. It also gave a GI50 (RPMI-8226 leukemia) of 30.9 nM, a TGI (RPMI-8226 leukemia) of 112 nM and a GI50 (IGROV1 ovarian) of 73.2 nM. For the same compound, the TGI (IGROV1 ovarian) was 15300 nM, the GI50 (MDA-MB-231 breast) was 202 nM and the TGI (MDA-MB-231 breast) was 35800 nM. For the same compound, the GI50 (PC-3 prostate) was 47.6 nM, the TGI (PC-3 prostate) was greater than 100000 nM and the GI50 (EKVX NSCLC) was 58.4 nM. It also gave a TGI (EKVX NSCLC) of 51500 nM, a GI50 (MOLT-4 leukemia) of 128 nM and a TGI (MOLT-4 leukemia) of 256 nM. It also gave a GI50 (HOP-92 NSCLC) of 332 nM, a TGI (HOP-92 NSCLC) of 23300 nM and a GI50 (OVCAR-5 ovarian) of 1460 nM. For the same compound, the TGI (OVCAR-5 ovarian) was 55100 nM, the GI50 (CCRF-CEM leukemia) was 170 nM and the TGI (CCRF-CEM leukemia) was 310 nM. The GI50 (BT-549 breast) was 38.2 nM, the TGI (BT-549 breast) was 1310 nM and the GI50 (SF-268 CNS) was 45.8 nM. The TGI (SF-268 CNS) was 2520 nM, the GI50 (OVCAR-8 ovarian) was 86.7 nM and the TGI (OVCAR-8 ovarian) was 40300 nM. For the same compound, the GI50 (HS 578T breast) was 22.1 nM, the TGI (HS 578T breast) was 47.1 nM and the GI50 (T-47D breast) was 743 nM. It also gave a TGI (T-47D breast) of 26300 nM, a GI50 (SF-539 CNS) of 188 nM and a TGI (SF-539 CNS) of 393 nM. For the same compound, the GI50 (A549 NSCLC) was 247 nM, the TGI (A549 NSCLC) was greater than 100000 nM and the GI50 (UO-31 renal) was 69 nM. The TGI (UO-31 renal) was 1720 nM, the GI50 (SR leukemia) was 18.1 nM and the TGI (SR leukemia) was 33.4 nM. The GI50 (OVCAR-3 ovarian) was 170 nM, the TGI (OVCAR-3 ovarian) was 414 nM and the GI50 (HOP-62 NSCLC) was 38.6 nM. For the same compound, the TGI (HOP-62 NSCLC) was 3610 nM, the GI50 (HCC-2998 colon) was 105 nM and the TGI (HCC-2998 colon) was 572 nM. For the same compound, the GI50 (SW-620 colon) was 37.3 nM, the TGI (SW-620 colon) was 13900 nM and the GI50 (SK-OV-3 ovarian) was 247 nM. It also gave a TGI (SK-OV-3 ovarian) of 18300 nM, a GI50 (NCI-H23 lung) of 47.9 nM and a TGI (NCI-H23 lung) of 1470 nM. For the same compound, the GI50 (KM12 colon) was 42 nM, the TGI (KM12 colon) was 19900 nM and the GI50 (CAKI-1 renal) was 56.6 nM. It also gave a TGI (CAKI-1 renal) of 11200 nM, a GI50 (A498 renal) of 298 nM and a TGI (A498 renal) of 16400 nM. The GI50 (SK-MEL-28 melanoma) was 14600 nM, the TGI (SK-MEL-28 melanoma) was 74900 nM and the GI50 (TK-10 renal) was 447 nM. It also gave a TGI (TK-10 renal) of 22200 nM.
